The values that follow come from patent US20110212467A1, “INHIBITORS OF dUTPase” (UNIVERSITY OF SOUTHERN CALIFORNIA, priority 2008, published 2011).

Series [1] relates to MCF-7 human breast cancer cell line. Kind of series: Growth inhibition by MTS assay in MCF-7 cells, alone and combined with FUdR. It is filed as cell-based. As to conditions: MCF-7, MTS assay; for pIC50: Homo sapiens, MCF7, read-out: concentration required to inhibit 50% cell growth; for combined drug effect with FUdR on growth inhibition: compound fixed at 62.5 μM with increasing concentrations of FUdR. As to the method:
FIG. 9. Inhibitors of dUTPase induce growth arrest in the MCF-7 human breast cancer cell line. (A) MCF-7 cells were exposed to increasing concentrations of two novel dUTPase inhibitory lead compounds and growth inhibition was analyzed by MTS assay. […] (B) DU-203 at a fixed concentration of 62.5 μM was combined with increasing concentrations of FUdR and the combined drug effect analyzed by MTS assay and the degree of synergy determined using the methods of Chou and Talalay. […] BB-123 enhances the growth arrest of MCF-7 cells when combined with FUdR. (C) BB-123 at a fixed concentration of 62.5 μM was combined with increasing concentrations of FUdR and the combined drug effect analyzed as described previously.
Inhibitors of dUTPase induce growth arrest in the MCF-7 human breast cancer cell line. […] These growth inhibitory effects are consistent with the inhibition of dUTPase and the resultant accumulation of dUTP and uracil misincorporation during DNA replication. To test the specificity of these inhibitors, DU-203 and BB-123 were combined with the inhibitor of thymidylate synthase (TS), FUdR.
On the technique in general: Tetrazolium dyes change colour on reduction, which living cells bring about.

Series [2] relates to MCF-7 pTet-off cells. Kind of series: dUTP accumulation assay. Format: cell-based, human. The settings on record: 24 h; for reduction in dUTP pool expansion with dUTPase overexpression versus basal dUTPase: 10 μM 5-FU or 1 μM FUdR. As for the experimental part: FIG. 5. Elevated dUTPase Protects Breast Cancer Cells from 5-FU. (A) Western blot and analysis of dUTPase expression and corresponding dUTPase enzyme activity assay following 72 h transfection with pTre-Tight:DUT-N in the presence and absence of 0.5 μg/m1 dox, Histogram bars represent the mean ±SEM of corresponding Western lysates analyzed in duplicate. (B) Analysis of dUTP accumulation in pTre-Tight:DUT-N-transfected MCF-7 psTet-off cells with basal (+dox) and induced (−dox) dUTPase expression and treated with 10 μM 5-FU, 1 μM FUdR and taxol (paclitaxel) 5 nM for 24 h, % dUTP was calculated as described in ‘Materials and Methods’, Histogram bars represent the mean ±SEM of two independent treatments, †=dUTP not detected. (C) Growth inhibition measured by MTS assay in pTre-Tight:DUT-N-transfected MCF-7 pTet-off cells following treatment with increasing concentrations (in μM) of 5-FU for 72 h. Histogram bars represent the mean ±SEM of three independent treatments, *=p<0.05, **=p<0.01.
dUTP Accumulation Assay MCF-7 pTet-off cells were treated with specified concentrations of 5-FU, FUdR and taxol for indicated times, harvested, and 3×10^6 cells were analyzed for nucleotide pool content using the assay developed by Sherman and Fyfe (10) modified to detect levels of TTP and dUTP by pre-incubating extracts with recombinant dUTPase (9, 11). Radioactive incorporation, measured in the presence of dUTPase represented the TTP pool, while untreated extracts represented both the dUTP and TTP pools. dUTP accumulation was determined by subtracting the results of extracts treated with dUTPase from untreated extracts and presented as % accumulation in histogram format. Statistical significance was determined using a two-tailed unpaired Student's t-test (Graphpad, San Diego, Calif.).
Elevated dUTPase Protects Breast Cancer Cells from 5-FU. […] A tetracycline-repressible dUTPase expression construct and overexpressed dUTPase with an approximate 4-fold increase in expression and enzymatic activity in transfected tet-inducible MCF-7 pTet-off cells (FIG. 5A) was utilized. […]

The next series concerns the target T1, dUTPase (Homo sapiens, UniProt P33316).
T1 sequence (P33316 94-252 limits assumed): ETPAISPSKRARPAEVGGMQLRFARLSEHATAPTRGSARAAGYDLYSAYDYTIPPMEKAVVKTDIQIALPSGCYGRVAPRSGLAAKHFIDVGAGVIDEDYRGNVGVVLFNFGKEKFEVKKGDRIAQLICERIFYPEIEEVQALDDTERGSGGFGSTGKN
Kind of series: dUTPase activity assay, % inhibition of dUTPase catalysis at 100 μM (Table 1). It is filed as biochemical. As to conditions: fixed concentration of 100 μM. As for the experimental part: dUTPase Activity Assay Cells were harvested and protein isolated and quantified as per Western blotting. Twenty-five μg of total protein was normalized to a 20 μl reaction volume with PBS/protease inhibitor. Relative dUTPase activity was determined as previously described (9) and is expressed as fold-change compared to an identical transfection in the presence of 0.5 μg/ml dox.
These molecules were tested in our dUTPase activity assay at an initial 100 μM in vitro to determine their percentage inhibition of dUTPase catalysis relative to un-inhibited control. Table 1 illustrates the docking fitness scores of the top four active compounds and their ability to inhibit dUTPase activity.

In series [3] the test system is MCF-7 pTet-off cells. As to the kind of experiment: Growth inhibition assay in MCF-7 pTet-off cells. It is filed as cell-based. The settings on record: Homo sapiens, MCF7; MCF-7 cells, 72 h. As for the experimental part: Growth Inhibition Assay MCF-7 pTet-off cells were transfected in the presence or absence of 0.5 μg/ml of dox and growth inhibition was measured as previously (9) using CellTiter 96® AQueous One Solution (Promega, Madison, Wis.). Cells were exposed to increasing concentrations of 5-FU for 72 h. Absorbance was measured using a SpectraMax 190 microplate reader (Molecular Devices, Sunnyvale, Calif.) at 490 nm, with drug treated cells compared to untreated controls set at 100%. Statistical significance was determined using a two-tailed unpaired Student's t-test (Graphpad, San Diego, Calif.).
We subsequently investigated the effects of dUTPase overexpression on growth inhibition following exposure of MCF-7 pTet-off cells to increasing concentrations of 5-FU.

Another series addresses T2, DPD (Homo sapiens, UniProt Q12882).
T2 construct: host or cells: liver
T2 sequence (Q12882 4-1025): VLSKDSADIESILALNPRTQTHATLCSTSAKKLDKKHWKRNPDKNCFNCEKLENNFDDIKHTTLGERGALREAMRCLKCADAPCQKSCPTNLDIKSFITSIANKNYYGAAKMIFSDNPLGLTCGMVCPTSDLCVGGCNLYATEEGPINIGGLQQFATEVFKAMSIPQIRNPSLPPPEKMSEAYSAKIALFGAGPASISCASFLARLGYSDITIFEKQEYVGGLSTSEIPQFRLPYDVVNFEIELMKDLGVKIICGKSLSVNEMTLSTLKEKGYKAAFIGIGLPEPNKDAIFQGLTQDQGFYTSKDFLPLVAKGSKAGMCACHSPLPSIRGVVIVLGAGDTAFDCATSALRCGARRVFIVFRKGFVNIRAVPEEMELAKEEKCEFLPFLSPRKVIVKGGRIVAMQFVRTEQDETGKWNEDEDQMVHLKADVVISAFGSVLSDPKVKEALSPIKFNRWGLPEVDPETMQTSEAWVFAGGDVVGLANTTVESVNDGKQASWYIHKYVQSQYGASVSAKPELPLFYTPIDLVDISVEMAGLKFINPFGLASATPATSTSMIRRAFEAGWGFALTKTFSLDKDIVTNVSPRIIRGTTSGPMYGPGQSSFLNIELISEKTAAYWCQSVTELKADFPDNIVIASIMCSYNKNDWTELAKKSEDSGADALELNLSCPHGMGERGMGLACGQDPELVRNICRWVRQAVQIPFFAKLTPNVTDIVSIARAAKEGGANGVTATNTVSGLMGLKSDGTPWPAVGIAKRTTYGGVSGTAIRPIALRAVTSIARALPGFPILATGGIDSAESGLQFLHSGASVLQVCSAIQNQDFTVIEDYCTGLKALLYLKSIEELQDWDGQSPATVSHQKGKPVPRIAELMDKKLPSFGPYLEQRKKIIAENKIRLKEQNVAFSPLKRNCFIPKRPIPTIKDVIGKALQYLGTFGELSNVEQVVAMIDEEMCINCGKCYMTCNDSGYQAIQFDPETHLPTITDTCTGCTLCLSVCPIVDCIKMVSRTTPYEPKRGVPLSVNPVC
As to conditions: cited from earlier work.

The next series deals with advanced breast cancer. The settings on record: cited from earlier work; for time to progression: capecitabine alone, or lapatinib combined with capecitabine.

Molecules are shown by their SMILES. pIC50: −log10 of the molar value.

For `CCc1ccc(N2CN(c3ccc(CC)cc3)CN(c3ccc(CC)cc3)C2)cc1` [BB123], in series [1], the pIC50 was 4.13 and the “combined drug effect with FUdR on growth inhibition” value is reported as “enhanced growth inhibition at all concentrations tested”. Also, in series [1] (listed as BB-123), the “combined drug effect with FUdR on growth inhibition” value is “enhanced growth inhibition is observed at all concentrations tested”. As for `O=c1[nH]c(=O)n([C@H]2C[C@H](O)[C@@H](CO)O2)cc1F` [FUdR, fluorodeoxyuridine], in the series on MCF-7 pTet-off cells [2], the “reduction in dUTP pool expansion with dUTPase overexpression versus basal dUTPase” value was determined as 38%. For the compound `CC(=O)O[C@H]1C(=O)[C@@]2(C)[C@H]([C@H](OC(=O)c3ccccc3)[C@]3(O)C[C@H](OC(=O)[C@H](O)[C@@H](NC(=O)c4ccccc4)c4ccccc4)C(C)=C1C3(C)C)[C@]1(OC(C)=O)CO[C@@H]1C[C@@H]2O` [paclitaxel], the dUTP detection result in the series with MCF-7 pTet-off cells [2] (taxol 5 nM, basal or induced dUTPase expression) is on record as “no detection of dUTP”. A word on the inhibition: it is the percentage by which the read-out fell short of the control. High values mean a strong effect, low ones a weak effect. `CCCc1ccc(OCC(=O)Nc2ccc(S(=O)(=O)Nc3onc(C)c3C)cc2)cc1` [Du 7]: testing at 100 µM against dUTPase gave an inhibition of 55.7%.

The compound `Cc1cc(C)c(NC(=O)CSc2nc3ccc(NC(=O)CSc4nnc(COc5ccccc5)n4-c4ccccc4)cc3s2)c(C)c1` [Du 44] came in with an inhibition at 100 µM against dUTPase of 28.5%. Take `COc1cc(/C=N/NC(=O)C(Cc2c[nH]c3ccccc23)NC(=O)OCc2ccccc2)cc([N+](=O)[O-])c1O` (centres unmarked) [Du 203]: in series [1], the pIC50 was 4.19 and the “combined drug effect with FUdR on growth inhibition” value is listed as “enhanced growth inhibition is observed at all concentrations tested”. As for `O=c1[nH]cc(F)c(=O)[nH]1` [Compound 5-FU, 5-fluorouracil], the “reduction in dUTP pool expansion with dUTPase overexpression versus basal dUTPase” value in the series on MCF-7 pTet-off cells [2] amounted to 37%. The pIC50 in the series on MCF-7 pTet-off cells [3] is less than 5.00. Moreover, on DPD, the “5-FU degraded by DPD in the liver” value is more than 80%. As for `N#Cc1c(N)nc(SCC(=O)c2ccc(F)cc2)c(C#N)c1-c1ccc(OCc2ccccc2)cc1` [Du 202], the “% dUTPase Inhibition” value on dUTPase is given as “Inactive”. With `CS(=O)(=O)CCNCc1ccc(-c2ccc3ncnc(Nc4ccc(OCc5cccc(F)c5)c(Cl)c4)c3c2)o1` [lapatinib], the time to progression in the series with advanced breast cancer is on record as 36.9 weeks. Moreover, the “improved response rate compared to capecitabine alone” value in the series on advanced breast cancer (combined with capecitabine, ErbB2 positive advanced breast cancer, previously failed multiple lines of therapy) is 12.2%. In turn, `CC(=O)CSc1nc2c(c(=O)[nH]c(=O)n2C)n1CC(O)COc1ccccc1C` (centres unmarked) [BB37] showed an inhibition at 100 µM at dUTPase of 34%. `CCCCCOC(=O)Nc1nc(=O)n([C@@H]2O[C@H](C)[C@@H](O)[C@H]2O)cc1F` [capecitabine]: the time to progression in the series with advanced breast cancer is recorded as 19.7 weeks.
